{"source": "patent US11911361B2", "about": "“Stable cannabinoid formulations” (priority 2014, dated 2024)", "key": {"[1]": {"experiment": "Pharmacokinetic food-effect study, single 20 mg/kg dose, healthy subjects (Example 17)", "details": "7-OH-cannabidiol; for ln(AUC0-inf) Geometric Mean / ln(AUC0-t) Geometric Mean / ln(Cmax) Geometric Mean: least squares geometric mean; for AUC0 / AUC0-0.25 / AUC0-0.5 / AUC0-0.75 / AUC0-1 / AUC0-1.5 / AUC0-2 / AUC0-2.5 / AUC0-3 / AUC0-4 / AUC0-6 / AUC0-8 / AUC0-12 / AUC0-16 / AUC0-24 / AUC0-36 / AUC0-48 / AUC0-72 / AUC0-96 / AUC0-120: single 20 mg/kg cannabidiol oral, mean ± SD; for AUC(0-inf) / AUC(0-t) / AUCextrap / Clast / Cmax / Tlast / t1/2 / λz / Tmax: single 20 mg/kg oral dose of cannabidiol solution; for AUC(0-inf) / AUC(0-t) / AUCextrap / Clast / Cmax / Tlast / t1/2 / λz: mean; for Tmax: median (min, max)", "experimental": "An open label, randomized, single-dose, two-period, two-way crossover food-effect study was conducted on healthy subjects. […] Twenty-four (24) subjects were enrolled in the study and each were subjected to the fasted and fed treatment arms in separate periods followed by a 7-day wash-out period. For pharmacokinetic analysis, nominal time and default lambda-z selections were used. All below quantifiable limit values were set to zero and all subjects were included in the analysis.\nData from 13 subjects from the fasted treatment and 24 subject from the fed treatment were included in the pharmacokinetic and statistical analyses."}, "[2]": {"test_system": "paclitaxel-induced mechanical sensitivity", "experiment": "Paclitaxel induced neuropathic pain study (Von Frey mechanical sensitivity)", "type": "in vivo, mice"}, "[3]": {"details": "20 mg/kg cannabidiol oral, Fasted"}, "[4]": {"details": "20 mg/kg cannabidiol oral, geometric mean (fed)/geometric mean (fasted)"}}, "data": [{"compound": "C=C(C)[C@@H]1CCC(CO)=C[C@H]1c1c(O)cc(CCCCC)cc1O", "note": "[Formulation 7-OH-cannabidiol]", "values": [{"measurement": "ln(AUC0-inf) Geometric Mean", "setting": "[1]; [3]", "result": 657.5873}, {"measurement": "ln(AUC0-t) Geometric Mean", "setting": "[1]; [3]", "result": 630.3322}, {"measurement": "ln(Cmax) Geometric Mean", "setting": "[1]; [3]", "result": 34.8933}, {"measurement": "ln(AUC0-inf) Geometric Mean", "setting": "[1]; 20 mg/kg cannabidiol oral, Fed", "result": 4701.4345}, {"measurement": "ln(AUC0-t) Geometric Mean", "setting": "[1]; 20 mg/kg cannabidiol oral, Fed", "result": 4610.3024}, {"measurement": "ln(Cmax) Geometric Mean", "setting": "[1]; 20 mg/kg cannabidiol oral, Fed", "result": 442.6751}, {"measurement": "ln(AUC0-inf) Ratio (%) (Fed/Fasted)", "setting": "[1]; [4]", "result": 714.95, "unit": "%"}, {"measurement": "ln(AUC0-t) Ratio (%) (Fed/Fasted)", "setting": "[1]; [4]", "result": 731.41, "unit": "%"}, {"measurement": "ln(Cmax) Ratio (%) (Fed/Fasted)", "setting": "[1]; [4]", "result": 1268.65, "unit": "%"}, {"measurement": "AUC0", "setting": "[1]; fasted", "result": "0.114 ± 0.410", "unit": "ng·h/mL"}, {"measurement": "AUC0-0.25", "setting": "[1]; fasted", "result": "0.101 ± 0.363", "unit": "ng·h/mL"}, {"measurement": "AUC0-0.5", "setting": "[1]; fasted", "result": "0.217 ± 0.361", "unit": "ng·h/mL"}, {"measurement": "AUC0-0.75", "setting": "[1]; fasted", "result": "0.954 ± 0.843", "unit": "ng·h/mL"}, {"measurement": "AUC0-1", "setting": "[1]; fasted", "result": "2.29 ± 2.13", "unit": "ng·h/mL"}, {"measurement": "AUC0-1.5", "setting": "[1]; fasted", "result": "3.91 ± 3.90", "unit": "ng·h/mL"}, {"measurement": "AUC0-2", "setting": "[1]; fasted", "result": "5.46 ± 5.23", "unit": "ng·h/mL"}, {"measurement": "AUC0-2.5", "setting": "[1]; fasted", "result": "6.81 ± 6.85", "unit": "ng·h/mL"}, {"measurement": "AUC0-3", "setting": "[1]; fasted", "result": "7.83 ± 8.27", "unit": "ng·h/mL"}, {"measurement": "AUC0-4", "setting": "[1]; fasted", "result": "8.65 ± 8.64", "unit": "ng·h/mL"}, {"measurement": "AUC0-6", "setting": "[1]; fasted", "result": "9.79 ± 7.71", "unit": "ng·h/mL"}, {"measurement": "AUC0-8", "setting": "[1]; fasted", "result": "18.5 ± 34.2", "unit": "ng·h/mL"}, {"measurement": "AUC0-12", "setting": "[1]; fasted", "result": "10.1 ± 8.36", "unit": "ng·h/mL"}, {"measurement": "AUC0-16", "setting": "[1]; fasted", "result": "7.23 ± 4.28", "unit": "ng·h/mL"}, {"measurement": "AUC0-24", "setting": "[1]; fasted", "result": "6.09 ± 2.70", "unit": "ng·h/mL"}, {"measurement": "AUC0-36", "setting": "[1]; fasted", "result": "4.39 ± 2.45", "unit": "ng·h/mL"}, {"measurement": "AUC0-48", "setting": "[1]; fasted", "result": "3.00 ± 1.91", "unit": "ng·h/mL"}, {"measurement": "AUC0-72", "setting": "[1]; fasted", "result": "1.65 ± 1.38", "unit": "ng·h/mL"}, {"measurement": "AUC0-96", "setting": "[1]; fasted", "result": "1.04 ± 1.11", "unit": "ng·h/mL"}, {"measurement": "AUC0-120", "setting": "[1]; fasted", "result": "0.511 ± 0.799", "unit": "ng·h/mL"}, {"measurement": "AUC0", "setting": "[1]; fed", "result": "0.131 ± 0.537", "unit": "ng·h/mL"}, {"measurement": "AUC0-0.25", "setting": "[1]; fed", "result": "0.221 ± 0.676", "unit": "ng·h/mL"}, {"measurement": "AUC0-0.5", "setting": "[1]; fed", "result": "0.980 ± 1.29", "unit": "ng·h/mL"}, {"measurement": "AUC0-0.75", "setting": "[1]; fed", "result": "2.87 ± 4.21", "unit": "ng·h/mL"}, {"measurement": "AUC0-1", "setting": "[1]; fed", "result": "7.33 ± 11.7", "unit": "ng·h/mL"}, {"measurement": "AUC0-1.5", "setting": "[1]; fed", "result": "47.5 ± 78.5", "unit": "ng·h/mL"}, {"measurement": "AUC0-2", "setting": "[1]; fed", "result": "104 ± 150", "unit": "ng·h/mL"}, {"measurement": "AUC0-2.5", "setting": "[1]; fed", "result": "158 ± 202", "unit": "ng·h/mL"}, {"measurement": "AUC0-3", "setting": "[1]; fed", "result": "197 ± 235", "unit": "ng·h/mL"}, {"measurement": "AUC0-4", "setting": "[1]; fed", "result": "289 ± 290", "unit": "ng·h/mL"}, {"measurement": "AUC0-6", "setting": "[1]; fed", "result": "346 ± 188", "unit": "ng·h/mL"}, {"measurement": "AUC0-8", "setting": "[1]; fed", "result": "284 ± 128", "unit": "ng·h/mL"}, {"measurement": "AUC0-12", "setting": "[1]; fed", "result": "187 ± 121", "unit": "ng·h/mL"}, {"measurement": "AUC0-16", "setting": "[1]; fed", "result": "85.7 ± 36.9", "unit": "ng·h/mL"}, {"measurement": "AUC0-24", "setting": "[1]; fed", "result": "47.5 ± 23.0", "unit": "ng·h/mL"}, {"measurement": "AUC0-36", "setting": "[1]; fed", "result": "26.7 ± 13.1", "unit": "ng·h/mL"}, {"measurement": "AUC0-48", "setting": "[1]; fed", "result": "16.9 ± 7.73", "unit": "ng·h/mL"}, {"measurement": "AUC0-72", "setting": "[1]; fed", "result": "7.36 ± 3.10", "unit": "ng·h/mL"}, {"measurement": "AUC0-96", "setting": "[1]; fed", "result": "4.03 ± 1.94", "unit": "ng·h/mL"}, {"measurement": "AUC0-120", "setting": "[1]; fed", "result": "2.41 ± 1.26", "unit": "ng·h/mL"}, {"measurement": "AUC(0-inf)", "setting": "[1]; fasted", "result": 425.3, "unit": "ng·h/mL"}, {"measurement": "AUC(0-t)", "setting": "[1]; fasted", "result": 414.7, "unit": "ng·h/mL"}, {"measurement": "AUCextrap", "setting": "[1]; fasted", "result": 2.77, "unit": "%"}, {"measurement": "Clast", "setting": "[1]; fasted", "result": 0.561, "unit": "ng/mL"}, {"measurement": "Cmax", "setting": "[1]; fasted", "result": 22.8, "unit": "ng/mL"}, {"measurement": "Tlast", "setting": "[1]; fasted", "result": 114.47, "unit": "h"}, {"measurement": "t1/2", "setting": "[1]; fasted", "result": 21.36, "unit": "h"}, {"measurement": "λz", "setting": "[1]; fasted", "result": 0.0348, "unit": "h⁻¹"}, {"measurement": "Tmax", "setting": "[1]; fasted", "result": "8.00 (2.50, 24.00) h"}, {"measurement": "AUC(0-inf)", "setting": "[1]; fed", "result": 4902, "unit": "ng·h/mL"}, {"measurement": "AUC(0-t)", "setting": "[1]; fed", "result": 4811, "unit": "ng·h/mL"}, {"measurement": "AUCextrap", "setting": "[1]; fed", "result": 1.93, "unit": "%"}, {"measurement": "Clast", "setting": "[1]; fed", "result": 2.41, "unit": "ng/mL"}, {"measurement": "Cmax", "setting": "[1]; fed", "result": 474, "unit": "ng/mL"}, {"measurement": "Tlast", "setting": "[1]; fed", "result": 120.00, "unit": "h"}, {"measurement": "t1/2", "setting": "[1]; fed", "result": 24.69, "unit": "h"}, {"measurement": "λz", "setting": "[1]; fed", "result": 0.0292, "unit": "h⁻¹"}, {"measurement": "Tmax", "setting": "[1]; fed", "result": "6.00 (3.00, 12.00) h"}]}, {"compound": "CCCCCc1cc(O)c2c(c1)OC(C)(C)[C@@H]1CCC(C)=C[C@@H]21", "note": "[THC, reference compound]", "values": [{"measurement": "minimal effective dose", "setting": "[2]; IP", "result": 2.5, "unit": "mg/kg"}, {"measurement": "dose equi-effective to […] CBD", "setting": "[2]; dose equivalence analysis", "result": 0.7, "unit": "mg/kg"}, {"measurement": "effect on paclitaxel-induced mechanical sensitivity (in words)", "setting": "[2]; pretreatment 15 minutes prior to each paclitaxel injection, IP", "result": "significantly attenuated"}]}]}
